{"source": "patent US7041675B2", "about": "“Heterocyclic compounds and their use as PARP inhibitors” (Abbott GmbH & Co. KG, priority 2000, dated 2006)", "origin": "cited, not measured here", "system": "model of circulatory shock", "details": "S. Cuzzocrea et al., Br. J. Pharmacol. 1997", "data": [{"compound": "NC(=O)c1cccc(N)c1", "note": "[3-aminobenzamide]", "values": [{"measurement": "protective effects in a model of circulatory shock", "value": "protective effects"}]}]}
